This passage reports Activity, IC50 and inhibition results from ChEMBL document CHEMBL4610071, “Ancistrosecolines A-F, Unprecedented seco-Naphthylisoquinoline Alkaloids from the Roots of Ancistrocladus abbreviatus, with Apoptosis-Inducing Potential against HeLa Cancer Cells” (J Nat Prod, 2020).

Assay type in all cases: functional, cell-based
Assay [1] has as its system HeLa. Put plainly: Cytotoxicity against human HeLa cells incubated for 72 hrs by WST-8 assay. In general terms: Tetrazolium dyes change colour on reduction, which living cells bring about.
In assay [2] the test system is HeLa. As to the kind of experiment: Induction of morphological alteration in human HeLa cells at 50 uM measured within 3 hrs by real-time digital microscopy.
Assay [3] concerns HeLa. As to the kind of experiment: Induction of apoptosis in human HeLa cells at 50 uM assessed as nuclear fragmentation incubated for 72 hrs by Hoechst 33342 staining based microscopic method.
Assay [4] has as its system HeLa. As to the kind of experiment: Induction of apoptosis in human HeLa cells at 50 uM measured within 24 hrs by real-time digital microscopy.
Assay [5] deals with HeLa. Put plainly: Induction of apoptosis in human HeLa cells at 50 uM assessed as appearance of elongated cellular morphology incubated for 72 hrs by Hoechst 33342 staining based microscopic method.
In assay [6] the test system is HeLa. Put plainly: Inhibition of cell division in human HeLa cells at 50 uM measured within 3 hrs by real-time digital microscopy.

Molecules are shown by their SMILES. Calls of active or inactive are those of the source. The calls are words filed in the database; no cut-off is given here.

Consider `COc1cc(C[C@H](C)N)cc(O)c1-c1ccc(OC)c2c(OC)cc(C)cc12` (atropisomer P), for which the Activity entry with HeLa [1] is “Dose-dependent effect”. Further, the IC50 – broadly, the midpoint of a concentration-inhibition curve – in the assay with HeLa [1] amounted to 11.2 µM. Besides, the outcome with HeLa [2], with HeLa [3], in the assay with HeLa [4] and in the assay with HeLa [5] was Active. The inhibition entry with HeLa [6] was “Active”.
Consider `CN[C@@H](C)Cc1cc(O)c(-c2c(C)cc(OC)c3c(OC)cccc23)c(OC)c1` (atropisomer P), for which, in the assay with HeLa [1], the IC50 turned out to be 52.6 µM.
On the same count and under the same terms, then `COc1cc(C[C@H](C)N)cc(O)c1-c1c(C)cc(OC)c2c(OC)cccc12` (atropisomer P), with 72.4 µM.
